Measurements reported in the supplement of paper PMC10307832.

Columns and labels:
Test in all cases: relative viability (nuclei count vs DMSO), 5 days (fraction); higher = more cells survive
[1] = compound: CC1=C(C(=NN1)C)CC2=C(C3=C(S2)N(C(=O)N(C3=O)C)CC(C)C)C(=O)N4C[C@@H](CO4)O + CC(C)C[C@H](NC(=O)[C@H](Cc1ccccc1)NC(=O)c1cnccn1)B(O)O [Bortezomib] (partner 0.002 µM)
Method in brief: (§1)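 Five library-drug doses in √10 steps were combined with a fixed anchor-drug dose, or a single drug was given alone, by pin tool to lung cancer cell lines in 1536-well plates the day after seeding. Nuclei were stained and counted after 5 days. Relative viability is the nuclei count in treated wells over that in vehicle wells, taken as the median of duplicate plates.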

[2] = compound: CC1=C(C(=NN1)C)CC2=C(C3=C(S2)N(C(=O)N(C3=O)C)CC(C)C)C(=O)N4C[C@@H](CO4)O + C[C@]1(O)C[C@@H](c2nc(-c3ccc4ccc(-c5ccccc5)nc4c3)c3c(N)nccn32)C1 [Linsitinib] (partner 1 µM)
Method in brief: as §1

[3] = compound: Cc1ccccc1C(C(=O)NC1CCCCC1)N(C(=O)Cn1ccnc1C)c1cccc(F)c1 [IDH-C35] + CC(=O)c1c(C)c2cnc(Nc3ccc(N4CCNCC4)cn3)nc2n(C2CCCC2)c1=O [Palbociclib] (partner 0.5 µM)
Method in brief: as §1

[4] = compound: Cc1ccccc1C(C(=O)NC1CCCCC1)N(C(=O)Cn1ccnc1C)c1cccc(F)c1 [IDH-C35] + Cc1nc(Nc2ncc(C(=O)Nc3c(C)cccc3Cl)s2)cc(N2CCN(CCO)CC2)n1 [Dasatinib] (partner 0.075 µM)
Method in brief: as §1

Cell Line: HARA
- relative viability ([1]; first compound 0.0025 µM): 1.21
- relative viability ([1]; first compound 0.007906 µM): 1.15
- relative viability ([1]; first compound 0.025 µM): 1
- relative viability ([1]; first compound 0.07906 µM): 0.979
- relative viability ([1]; first compound 0.25 µM): 1.1
- relative viability ([2]; first compound 0.0025 µM): 1.08
- relative viability ([2]; first compound 0.007906 µM): 1.01
- relative viability ([2]; first compound 0.025 µM): 0.919
- relative viability ([2]; first compound 0.07906 µM): 0.924
- relative viability ([2]; first compound 0.25 µM): 1.01
- relative viability ([3]; first compound 0.08 µM): 0.222
- relative viability ([3]; first compound 0.253 µM): 0.298
- relative viability ([3]; first compound 0.8 µM): 0.268
- relative viability ([3]; first compound 2.53 µM): 0.311
- relative viability ([3]; first compound 8 µM): 0.234
- relative viability ([4]; first compound 0.08 µM): 0.298
- relative viability ([4]; first compound 0.253 µM): 0.271
- relative viability ([4]; first compound 0.8 µM): 0.294
- relative viability ([4]; first compound 8 µM): 0.328

Cell Line: HCC-15
- relative viability ([1]; first compound 0.0025 µM): 1
- relative viability ([1]; first compound 0.007906 µM): 0.945
- relative viability ([1]; first compound 0.025 µM): 0.979
- relative viability ([1]; first compound 0.07906 µM): 1.02
- relative viability ([1]; first compound 0.25 µM): 1.2
- relative viability ([2]; first compound 0.0025 µM): 0.932
- relative viability ([2]; first compound 0.007906 µM): 0.937
- relative viability ([2]; first compound 0.025 µM): 0.871
- relative viability ([2]; first compound 0.07906 µM): 0.942
- relative viability ([2]; first compound 0.25 µM): 0.855
- relative viability ([3]; first compound 0.08 µM): 0.791
- relative viability ([3]; first compound 0.253 µM): 0.695
- relative viability ([3]; first compound 0.8 µM): 0.748
- relative viability ([3]; first compound 8 µM): 0.67
- relative viability ([4]; first compound 0.08 µM): 0.542
- relative viability ([4]; first compound 0.253 µM): 0.639
- relative viability ([4]; first compound 0.8 µM): 0.599
- relative viability ([4]; first compound 8 µM): 0.59

Cell Line: HCC-44
- relative viability ([1]; first compound 0.0025 µM): 0.901
- relative viability ([1]; first compound 0.007906 µM): 0.904
- relative viability ([1]; first compound 0.025 µM): 0.9
- relative viability ([1]; first compound 0.07906 µM): 0.893
- relative viability ([1]; first compound 0.25 µM): 0.797
- relative viability ([2]; first compound 0.0025 µM): 0.855
- relative viability ([2]; first compound 0.007906 µM): 0.713
- relative viability ([2]; first compound 0.025 µM): 0.629
- relative viability ([2]; first compound 0.07906 µM): 0.684
- relative viability ([2]; first compound 0.25 µM): 0.74
- relative viability ([3]; first compound 0.08 µM): 0.973
- relative viability ([3]; first compound 0.253 µM): 0.965
- relative viability ([3]; first compound 0.8 µM): 0.987
- relative viability ([3]; first compound 2.53 µM): 0.951
- relative viability ([3]; first compound 8 µM): 0.962

Cell Line: IA-LM
- relative viability ([1]; first compound 0.0025 µM): 0.923
- relative viability ([1]; first compound 0.007906 µM): 0.652
- relative viability ([1]; first compound 0.025 µM): 0.815
- relative viability ([1]; first compound 0.07906 µM): 1
- relative viability ([1]; first compound 0.25 µM): 0.883
- relative viability ([2]; first compound 0.0025 µM): 0.686
- relative viability ([2]; first compound 0.007906 µM): 0.509
- relative viability ([2]; first compound 0.025 µM): 0.552
- relative viability ([2]; first compound 0.07906 µM): 0.525
- relative viability ([2]; first compound 0.25 µM): 0.94

Cell Line: LK-2
- relative viability ([2]; first compound 0.0025 µM): 0.695
- relative viability ([2]; first compound 0.007906 µM): 0.674
- relative viability ([2]; first compound 0.025 µM): 0.495
- relative viability ([2]; first compound 0.07906 µM): 0.566
- relative viability ([2]; first compound 0.25 µM): 0.815
- relative viability ([3]; first compound 0.08 µM): 0.558
- relative viability ([3]; first compound 0.253 µM): 0.717
- relative viability ([3]; first compound 0.8 µM): 0.683
- relative viability ([3]; first compound 2.53 µM): 0.746
- relative viability ([3]; first compound 8 µM): 0.74
- relative viability ([4]; first compound 0.08 µM): 0.243
- relative viability ([4]; first compound 0.253 µM): 0.295
- relative viability ([4]; first compound 0.8 µM): 0.27
- relative viability ([4]; first compound 2.53 µM): 0.299
- relative viability ([4]; first compound 8 µM): 0.335

Cell Line: NCI-H358
- relative viability ([2]; first compound 0.0025 µM): 0.707
- relative viability ([2]; first compound 0.007906 µM): 0.794
- relative viability ([2]; first compound 0.025 µM): 0.801
- relative viability ([2]; first compound 0.07906 µM): 0.892
- relative viability ([2]; first compound 0.25 µM): 0.998
- relative viability ([3]; first compound 0.08 µM): 0.134
- relative viability ([3]; first compound 0.253 µM): 0.131
- relative viability ([3]; first compound 0.8 µM): 0.146
- relative viability ([3]; first compound 2.53 µM): 0.148
- relative viability ([3]; first compound 8 µM): 0.123
- relative viability ([4]; first compound 0.08 µM): 0.205
- relative viability ([4]; first compound 0.253 µM): 0.159
- relative viability ([4]; first compound 0.8 µM): 0.141
- relative viability ([4]; first compound 2.53 µM): 0.193
- relative viability ([4]; first compound 8 µM): 0.169

Cell Line: NCI-H522
- relative viability ([3]; first compound 0.08 µM): 1.07
- relative viability ([3]; first compound 0.253 µM): 1.07
- relative viability ([3]; first compound 0.8 µM): 1.01
- relative viability ([3]; first compound 2.53 µM): 0.944
- relative viability ([3]; first compound 8 µM): 0.99
- relative viability ([4]; first compound 0.08 µM): 0.977
- relative viability ([4]; first compound 0.253 µM): 0.976
- relative viability ([4]; first compound 0.8 µM): 0.858
- relative viability ([4]; first compound 2.53 µM): 1.01
- relative viability ([4]; first compound 8 µM): 0.905

Cell Line: NCI-H596
- relative viability ([1]; first compound 0.0025 µM): 0.997
- relative viability ([1]; first compound 0.007906 µM): 1.11
- relative viability ([1]; first compound 0.025 µM): 1.05
- relative viability ([1]; first compound 0.07906 µM): 1.15
- relative viability ([1]; first compound 0.25 µM): 0.98
- relative viability ([2]; first compound 0.0025 µM): 1.02
- relative viability ([2]; first compound 0.007906 µM): 1.14
- relative viability ([2]; first compound 0.025 µM): 1.08
- relative viability ([2]; first compound 0.07906 µM): 1.13
- relative viability ([2]; first compound 0.25 µM): 1.13
- relative viability ([4]; first compound 0.08 µM): 0.588
- relative viability ([4]; first compound 0.253 µM): 0.759
- relative viability ([4]; first compound 0.8 µM): 0.693
- relative viability ([4]; first compound 8 µM): 0.56

Cell Line: NCI-H1299
- relative viability ([1]; first compound 0.0025 µM): 1.03
- relative viability ([1]; first compound 0.007906 µM): 0.946
- relative viability ([1]; first compound 0.025 µM): 0.975
- relative viability ([1]; first compound 0.07906 µM): 1.01
- relative viability ([1]; first compound 0.25 µM): 1.01
- relative viability ([2]; first compound 0.0025 µM): 1.03
- relative viability ([2]; first compound 0.007906 µM): 0.875
- relative viability ([2]; first compound 0.025 µM): 0.926
- relative viability ([2]; first compound 0.07906 µM): 1
- relative viability ([2]; first compound 0.25 µM): 1.06
